Experimental data from patent US8592466B2, “Methods for treating conditions caused by higher-than-normal dopaminergic activity in basal ganglia” (Neuropill, Inc., priority 2008, dated 2013).
Where two headings read alike, the source gives them in different places.

What was measured:
[1] = 12 healthy adult human subjects; most events, except for one subject; cited from earlier work
[2] = RPR 102681 plasma concentration by LC/MS/MS; format: in vivo, humans; conditions: for concentration at 95 min / concentration at 215 min: human, plasma, read-out: mean plasma concentration (3-day average); for concentration at 95 min: 95 minutes post dose; for concentration at 215 min: 215 minutes post dose
Protocol: […] Pharmacokinetics (peak and trough levels) of RPR 102681 during treatment at a dose of 200 mg (day 13), 400 mg (day 20) and 800 mg (day 27) b.i.d. were determined.
The plasma concentration of RPR 102681 was determined with a validated liquid chromatography assay with mass spectrometric detection (LC/MS/MS) at the Department of Biopharmaceutical Sciences, University of California, San Francisco, Calif.
The sample plasma specimens for determining plasma concentration (354 RPR 102681 plasma specimens and 109 Prolactin plasma specimens) were frozen and packed in dry ice upon receipt by the Analytical Division/Drug Studies Unit at South San Francisco, Calif. These samples were kept frozen at approximately −20° C. until analyzed.
Human plasma samples (0.100 mL) were analyzed for RPR 102681 with an LC/MS/MS procedure utilizing a PE Sciex III system equipped with a BDS Hypersil C18 column (4.6×15 mm, 5 μm particle size), a mobile system consisting of acetonitrile:water:trifluoroacetic acid (70:30:0.06) (v/v) with 0.0006% (w/v) ammonium phosphate dibasic; mass spectrometric detection was accomplished with a sample inlet, heated nebulizer, positive ionization by Atmospheric Pressure Chemical Ionization (APCI) and mass scanning by Multiple Reaction Monitoring (MRM) analysis. Sample preparation consisted of precipitation of 0.100 mL of plasma with acetonitrile containing the internal standard (prednisolone acetate) prior to separation by LC/MS/MS. The linear range of the assay was 1.0 to 160 ng/mL, with a lower limit of quantitation of 1.0 ng/mL.
Standard curve and quality control (QC) samples were generated by spiking interference free human plasma samples with known amounts of RPR 102681 and internal standard (IS). These standard curve, assay, and QC samples were processed, then 40 μl aliquots were injected into the LC/MS/MS system for chromatographic separation and subsequent mass spectrometric detection. The peak area ratios of RPR 102681 to IS were calculated for each sample from the measured peak areas obtained by LC/MS/MS. Finally, spiked concentrations and RPR 102681 to IS peak area ratios of the standard curve samples were fit by 1/x weighted least squares linear regression to the equation for the best straight line (y=mx+b, where y=peak area ratio and x=RPR 102681 concentration), and drug concentration in assay sample were calculated by the equation from the RPR 102681 to IS peak area ratios obtained by LC/MS/MS.

[3] = Phase I cocaine interaction study: 12-lead ECG; format: in vivo, humans
Protocol: Changes in ECG readings during saline infusion as compared to those taken during cocaine infusions were also reported.
A 12 Lead ECG was scheduled at Pre-Intake Screening, Intake Screening, Discharge and follow-up all of which are non-infusion days. […] All subjects completed the non-infusion ECG's at baseline and discharge.
To evaluate subjects' responses to cocaine infusion, measurements after cocaine 40 mg infusion were compared to those prior to any infusion (reading at −10 min). Readings at 4 min and 40 min were used when the first infusion was cocaine while readings at 64 min and 100 min were used when the second infusion was cocaine. […] The RPR 102681 group also had decreased RR and QT duration from baseline at 40 min post cocaine infusion on day 15. In the placebo group, some scattered significant decreases from baseline were observed including PR duration at 4 min post cocaine on day 8 and RR duration at 4 min post cocaine on day 8 and 15. […] However, the statistical significance might not hold if multiplicity adjustment was performed in these multiple comparisons.

[4] = Cocaine and BE pharmacokinetics under RPR 102681 treatment; conditions: post-treatment RPR 102681 doses vs baseline

SMILES: CC(C(=O)O)c1cccc(NC(=O)NCC(=O)N2C(C(=O)OC(C)(C)C)CSC2c2ccccc2F)c1 [RPR 102681, (2S)-2-{3-[3-({[(2R,4R)-4-tert-Butoxycarbonyl-2-(2-fluorophenyl)]-3-thiazolidinyl}carbonylmethyl)ureido]phenyl}propionic acid]
- severity of adverse events and treatment-associated adverse events [1]: mild or moderate
- mean plasma concentration at 2-3.5 hours relative to 8-11 hours ([2]; 200 mg dose): approximately 19 times
- mean plasma concentration at 2-3.5 hours relative to 8-11 hours ([2]; 400 mg dose): ~15 times
- dose-proportionality of plasma concentration ([2]; 400 mg to 800 mg dose range, 95 and 215 minutes post-dose): Severe deviation from dose-proportionality
- mean plasma concentration at 2-3.5 hours relative to 8-11 hours ([2]; 800 mg dose): ~8 times
- least-squares mean of dose-normalized concentration ([2]; 95 minutes post-dose, day 13, 200 mg): 1.26 ng/mL
- least-squares mean of dose-normalized concentration ([2]; 95 minutes post-dose, day 14, 200 mg): 1.12 ng/mL
- least-squares mean of dose-normalized concentration ([2]; 95 minutes post-dose, day 15, 200 mg): 1.25 ng/mL
- least-squares mean of dose-normalized concentration ([2]; 95 minutes post-dose, day 20, 400 mg): 1.36 ng/mL
- least-squares mean of dose-normalized concentration ([2]; 95 minutes post-dose, day 21, 400 mg): 0.87 ng/mL
- least-squares mean of dose-normalized concentration ([2]; 95 minutes post-dose, day 22, 400 mg): 1.05 ng/mL
- least-squares mean of dose-normalized concentration ([2]; 95 minutes post-dose, day 27, 800 m): 0.78 ng/mL
- least-squares mean of dose-normalized concentration ([2]; 95 minutes post-dose, day 28, 800 m): 0.58 ng/mL
- least-squares mean of dose-normalized concentration ([2]; 95 minutes post-dose, day 29, 800 m): 0.43 ng/mL
- least-squares mean of dose-normalized concentration ([2]; 215 minutes after dose, day 13, 200 mg): 0.70 ng/mL
- least-squares mean of dose-normalized concentration ([2]; 215 minutes after dose, day 14, 200 mg): 0.78 ng/mL
- least-squares mean of dose-normalized concentration ([2]; 215 minutes after dose, day 15, 200 mg): 0.62 ng/mL
- least-squares mean of dose-normalized concentration ([2]; 215 minutes after dose, day 20, 400 mg): 0.58 ng/mL
- least-squares mean of dose-normalized concentration ([2]; 215 minutes after dose, day 21, 400 mg): 0.54 ng/mL
- least-squares mean of dose-normalized concentration ([2]; 215 minutes after dose, day 22, 400 mg): 0.66 ng/mL
- least-squares mean of dose-normalized concentration ([2]; 215 minutes after dose, day 27, 800 mg): 0.42 ng/mL
- least-squares mean of dose-normalized concentration ([2]; 215 minutes after dose, day 28, 800 mg): 0.39 ng/mL
- least-squares mean of dose-normalized concentration ([2]; 215 minutes after dose, day 29, 800 mg): 0.33 ng/mL
- concentration at 95 min ([2]; 200 mg b.i.d. oral): 242 ng/mL
- concentration at 95 min ([2]; 400 mg b.i.d. oral): 422 ng/mL
- concentration at 95 min ([2]; 800 mg b.i.d. oral): 441 ng/mL
- concentration at 215 min ([2]; 200 mg b.i.d. oral): 140 ng/mL
- concentration at 215 min ([2]; 400 mg b.i.d. oral): 255 ng/mL
- concentration at 215 min ([2]; 800 mg b.i.d. oral): 285 ng/mL
- PR/RR/QT duration following cocaine infusion vs pre infusion ([3]; cocaine 40 mg infusion): seemed to decrease
- clinical significance of PR/RR/QT changes ([3]; cocaine 40 mg infusion): not clinically significant
- pre infusion RR and QT duration vs intake screening ([3]; days 8, 15, 22, 29): No significant difference
- pre infusion PR duration vs intake screening ([3]; days 8, 15, 22, 29, Signed Rank Test): significantly longer
- ECG mean values for VR, PR, QT, RR and QRS ([3]; non-infusion days): within normal range
- cocaine and BE pharmacokinetic parameters, difference from baseline [4]: No statistically significant differences
